For the assay, the target named is T1, human GPR40 (Homo sapiens, UniProt O14842).
T1 construct: expressed in transfected cells; host or cells: CHO cells, transiently transfected with Lipofectamine 2000 and co-transfected with an aequorin expression vector (Euroscreen)
T1 sequence (O14842 whole entry): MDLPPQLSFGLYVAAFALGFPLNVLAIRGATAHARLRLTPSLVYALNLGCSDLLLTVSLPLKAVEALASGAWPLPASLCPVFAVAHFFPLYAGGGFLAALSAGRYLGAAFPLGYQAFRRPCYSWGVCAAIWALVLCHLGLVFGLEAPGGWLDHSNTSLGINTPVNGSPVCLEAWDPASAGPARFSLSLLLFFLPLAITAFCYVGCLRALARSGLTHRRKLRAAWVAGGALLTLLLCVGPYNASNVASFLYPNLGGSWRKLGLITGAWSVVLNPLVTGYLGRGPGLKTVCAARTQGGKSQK
Description: Cell-based aequorin assay using human GPR40. The conditions noted are these: activation of human GPR40; CHO cells transfected with GPR40 and aequorin expression vectors; aequorin luminescence, area-under-curve 2-20 seconds; read-out: Relative EC50. As for the experimental part:
A cell-based aequorin assay may be employed to characterize the modulatory activity of compounds on the GPR40 signaling pathway. In an exemplary assay, CHO cells are transfected in a 15 cm plated containing 14 million cells with 5 μg of GPR40 expression vector and 5 μg of Aequorin expression vector (Euroscreen) using Lipofectamine 2000 (Invitrogen). After 17-24 hours post-transfection, cells are washed with phosphate buffered saline (PBS) and detached from the tissue culture dish with 2 mL of trypsin (0.25%(w/v)). Trypsinization is halted with 28 mL of Hanks Buffered Salt Solution containing 20 mM Hepes (H/HBSS) and 0.01% fatty acid-free bovine serum albumin (BSA) or 0.625% fatty acid-free human serum albumin (HSA). Coelantrazine is added to 1 ug/mL and the cells are incubated for 2 hours at room temperature. Cells are gently mixed every 15 minutes. Compounds are dissolved in dimethyl sulfoxide for preparation of 10 mM stock solutions. Compounds are diluted in H/HBSS containing either 0.01% BSA or 0.625% HSA. Serial dilutions of the test compounds are prepared to determine dose response.
Aequorin luminescence measurements are made using an EG&G Berthold 96-well luminometer and the response is measured over a 20 second interval after cells and compounds were mixed. The area-under-curve from 2-20 seconds is plotted to determine dose reponse. The EC50 (effective concentration to reach 50% maximal response) is determined from the dose response plot. […]
`CC#C[C@@H](CC(=O)O)c1ccc(OCc2nc(-c3ccc(C(F)(F)F)cc3)oc2C)cc1` [Compound 86]: the EC50 was under 0.01 µM.

For `Cc1ccccc1COc1ccc(C(C#CC(F)(F)F)CC(=O)O)cc1` (stereo not drawn) [Compound 87], the EC50 is over 10 µM. `CC(C)CN(CC(C)C)[C@@H](CC(=O)O)c1ccc(OCc2cccc(Oc3ccc(F)cc3)c2)cc1` [Compound 88.1]: the EC50 is over 10 µM. For `CCC(=O)N[C@@H](CC(=O)O)c1ccc(OCc2cccc(Oc3ccc(F)cc3)c2)cc1` [Compound 88.2], the EC50 is over 10 µM.

With `O=C(O)C[C@H](NC(=O)c1ccccc1)c1ccc(OCc2cccc(Oc3ccc(F)cc3)c2)cc1` [Compound 88.3], the EC50 is over 10 µM. As to `O=C(O)C[C@H](NC(=O)Cc1ccccc1)c1ccc(OCc2cccc(Oc3ccc(F)cc3)c2)cc1` [Compound 88.4], the EC50 is over 10 µM. The value for `O=C(O)C[C@H](NC(=O)/C=C/c1ccccc1)c1ccc(OCc2cccc(Oc3ccc(F)cc3)c2)cc1` [Compound 88.5] was over 10 µM. In the case of `O=C(O)C[C@H](NC(=O)CCc1ccccc1)c1ccc(OCc2cccc(Oc3ccc(F)cc3)c2)cc1` [Compound 88.6], the EC50 was over 10 µM. In the case of `O=C(O)CC(c1ccc(OCc2cccc(-c3ccc(C(F)(F)F)cc3)c2)cc1)c1nn[nH]n1` (stereo not drawn) [Compound 88.7] it was 1 to 10 µM; in that of `O=C(O)CC1(c2ccc(OCc3cccc(-c4ccc(C(F)(F)F)cc4)c3)cc2)CC1` [Compound 89], 1 to 10 µM. For `NC(=O)C(CC(=O)O)c1ccc(OCc2cccc(-c3ccc(C(F)(F)F)cc3)c2)cc1` (stereo not drawn) [Compound 90], the EC50 was 1 to 10 µM. In the case of `OC(O)CC(c1ccc(OCc2cccc(-c3ccc(C(F)(F)F)cc3)c2)cc1)C1CC1` (stereo not drawn) [Compound 91] it was 1 to 10 µM.

A word on the EC50: it is the concentration giving half of the maximal effect.
